Laboratory results reported in patent publication US8420852B2, “Phospholipase A2 inhibitors and their use in treating neurological injury and disease” (The Regents of the University of California, priority 2007, dated 2013).

Columns and labels:
[1] = tested on: chemokine and cytokine protein expression in spinal cord; assay: mouse inflammation antibody array of spinal cords of EAE mice; assay type: in vivo; details: treatment from day 5, tissue day 18
Experimental: Spinal cords were removed from vehicle and inhibitor treated animals when the vehicle-treated mice reached the peak of disease (score of 4). The tissues were then homogenized in lysis buffer and centrifuged at 1000×g. These protein samples were then assessed using the Raybio® inflammatory antibody array from RayBiotech Inc (Norcross, Ga.). Briefly, blocking buffer was added to glass-chip slides, which are coated with antibodies against chemokine, cytokine and related proteins. The slides were then incubated with the various protein samples from the treatment and control groups. After washing the glass slides, they were incubated sequentially with a biotin conjugated secondary antibody solution, horseradish peroxidase (HRP)-conjugated strepavidin, and HRP detection buffer. The signals were then visualized by chemiluminescence. Densitometric analysis was performed to detect differences between the various samples using ImageQuant 5.1 software (Molecular Dynamics). Positive control signals were used to normalize the level of expression from different glass slides being compared. Experiments were repeated with 3 different samples (n=3), and all the detection and analysis was done blind.
The results of this group of experiments are shown with the reference to FIGS. 15 and 16. FIG. 15 provides graphs showing the level of protein expression of chemokines in spinal cords of naive mice and EAE mice treated with PLA2 inhibitors starting on day 5. Tissues were taken on day 18, when the vehicle treated animals reached the peak of the first clinical attack. The data are shown for inhibitors AX059 (FIG. 15a) and AX115 (FIG. 15b). Data represent means±SEM from 3 animals in each group. In the figures, * represents a significant decrease, while ** represents a significant increase as compared to vehicle treated EAE controls.
FIG. 16 provides graphs showing the level of protein expression of cytokines in spinal cords of naive mice and EAE treated mice treated with PLA2 inhibitors starting on day 5. Tissues were taken on day 18, when the vehicle treated animals reached the peak of the first clinical attack. The data are shown for inhibitors AX059 (FIG. 16a) and AX115 (FIG. 16b). Data represent means±SEM from 3 animals in each group. In the figures, * represents a significant decrease, while ** represents a significant increase as compared to vehicle treated EAE controls.
Changes were assessed in protein expression of 40 chemokines and cytokines, their receptors and related molecules, using a mouse antibody array (RayBiotech Inc.). The analysis was carried out on spinal cords from mice treated with inhibitors starting from day 5 post-immunization. Tissue was taken on day 18 when the control vehicle-treated mice reached the peak of the first clinical attack. 12 chemokines were increased in vehicle-treated mice (FIG. 15), most of which are known to play a role in EAE, except for LIX (CXCL5) and TECK (CCL25), whose functions in CNS autoimmune disease remain unclear. […] In contrast, the pan-inhibitor AX115, which inhibits sPLA2 greater than AX059 reduced the expression of 7 of the 12 chemokines (FIG. 15b). Importantly, it increased the expression of eotaxin-2 (1.8-fold), RANTES (9.6-fold) and MIP-1 γ (9.7-fold) […], which can also regulate the allergic arm of the immune response.

[2] = tested on: fatty acids attached to phospholipid classes in spinal cord; assay: lipid profiling of spinal cords of EAE mice (fatty acid hydrolysis); assay type: in vivo, mouse; details: for Treatment: mean ± SD, n=3; for % Difference: treated EAE vs naive
Experimental: Spinal cords were removed from vehicle and inhibitor treated animals at the peak stage of disease when the vehicle-treated mice reached the clinical score of 4, and the tissue snap frozen in liquid nitrogen. Lipid profiling was carried out by Lipomics Technology Inc. (West Sacramento, Calif.). The tissues were then extracted for either TrueMass® lipid profiling, or an eicosanoid inflammatory panel analysis. The lipids from the tissues were extracted in the presence of authentic internal standards as previously described (55), using chloroform:methanol (2:1 v/v). Individual lipid classes within each extract were separated by liquid chromatography (Agilent Technologies model 1100 Series). Each lipid class was trans-esterified in 1% sulfuric acid in methanol in a sealed vial under a nitrogen atmosphere at 100° C. for 45 min. The resulting fatty acid methyl esters were extracted from the mixture with hexane containing 0.05% butylated hydroxytoluene and prepared for gas chromatography by sealing the hexane extracts under nitrogen. Fatty acid methyl esters were separated and quantified by capillary gas chromatography (Agilent Technologies model 6890) equipped with a 30 m DB-88MS capillary column (Agilent Technologies) and a flame-ionization detector. Lipomic Surveyor® software was used to visualize changes within the treated groups. Experiments were repeated with 3 different samples (n=3), and all the detection and analysis was done blind.
As PLA2s hydrolyze fatty acids from the sn-2 position of phospholipids, a comprehensive profiling was carried out of 40 fatty acids (FAs) that are attached to 5 phospholipid classes in extracts of spinal cords of naive mice, EAE mice treated with vehicle, and PLA2 inhibitor-treated EAE mice. […] These tissues were taken from the same groups of mice used for the chemokine/cytokine assay described above.

`CCCCCCCCCCCCCCC(=O)C(=O)NCC(=O)OC` [AX115] was tested. Which “number of chemokines reduced” value ([1]; of the 12 chemokines increased in vehicle-treated EAE mice) did it give?
Its value is 7.

What about the “number of cytokines reduced” value ([1]; of the 13 cytokines increased in vehicle-treated EAE mice) of the same molecule?
Its value is 9.

And the “increase in expression of IL-10” value ([1]; spinal cord)?
Its value is “failed to increase IL-10”.

And the “increase in expression of MIP-1 γ” value ([1]; spinal cord)?
The value was 9.7 fold.

What about the “increase in expression of RANTES” value ([1]; spinal cord) of the same molecule?
Its value is 9.6 fold.

What about the “increase in expression of eotaxin-2” value ([1]; spinal cord) of the same molecule?
Its value is 1.8 fold.

What about the “increase in soluble TNF receptor 1 (sTNFR1)” value ([1]; spinal cord) of the same molecule?
Its value is roughly 4 fold.

And the “Treatment” value ([2]; Cardiolipin - arachidic, naive 464.0 ± 69.4)?
The value was 324.4 ± 27.5 nmol.

And the “% Difference” value ([2]; Cardiolipin - arachidic)?
The value was 30.1%.

And the “Treatment” value ([2]; Cardiolipin - eicosapentaenoic, naive 16.1 ± 4.8)?
Its value is 3.2 ± 5.5 nmol.

And the “% Difference” value ([2]; Cardiolipin - eicosapentaenoic)?
The value was 80.3%.

What about the “Treatment” value ([2]; Phosphatidylcholine - arachidic, naive 347.9 ± 20.1) of the same molecule?
The value was 269.4 ± 24.9 nmol.

What about the “% Difference” value ([2]; Phosphatidylcholine - arachidic) of the same molecule?
Its value is 22.5%.

And the “Treatment” value ([2]; Phosphatidylcholine - eicosenoic, naive 1666.2 ± 46.4)?
The value was 1393.4 ± 52.5 nmol.

What about the “% Difference” value ([2]; Phosphatidylcholine - eicosenoic) of the same molecule?
The value was 16.4%.

And the “% Difference” value ([2]; Phosphatidylcholine - erucic)?
The value was 22.4%.

And the “Treatment” value ([2]; Phosphatidylserine - tetracosahexanoic, naive 9.7 ± 0.8)?
Its value is 6.4 ± 0.6 nmol.

And the “% Difference” value ([2]; Phosphatidylserine - tetracosahexanoic)?
The value was 33.8%.

And the “Treatment” value ([2]; Phosphatidylserine-1-enyl-octadecenoic, naive 217.4 ± 37.9)?
Its value is 133.3 ± 32.5 nmol.

What about the “% Difference” value ([2]; Phosphatidylserine-1-enyl-octadecenoic) of the same molecule?
Its value is 38.7%.
